Source: ChEMBL document CHEMBL3603765, “Targeting Drug Resistance in EGFR with Covalent Inhibitors: A Structure-Based Design Approach” (J Med Chem, 2015)
Converted amounts (≈) assume the structure as drawn. The source made the active and inactive calls. The calls are words filed in the database; no cut-off is given here.

What was measured:
[1] = Growth inhibition of human HCC827 cells with exon 19 deletion and delE746-A750 incubated for 96 hrs by cell-titer Glo reagent based assay; assay type: functional; conditions: HCC827, 96 h
[2] = target: Epidermal growth factor receptor (Homo sapiens, UniProt P00533); experiment: Inhibition of wild type EGFR (unknown origin) expressed in Sf9 cells pre-incubated for 30 mins before substrate and ATP addition by homogeneous time-resolved FRET assay
[3] = target: T1, Epidermal growth factor receptor (Homo sapiens, UniProt P00533, L858R)
[4] = target: T2, Epidermal growth factor receptor (Homo sapiens, UniProt P00533, L858R/T790M)
[5] = system: NCI-H1975; experiment: Growth inhibition of human NCI-H1975 cells expressing EGFR L858R/T790M mutant at 30 um incubated for 96 hrs by cell-titer Glo reagent based assay; assay type: functional
[6] = system: NCI-H661; experiment: Growth inhibition of human NCI-H661 cells incubated for 96 hrs by cell-titer Glo reagent based assay; assay type: functional; conditions: NCI-H661, 96 h
[7] = system: NCI-H1975; experiment: Growth inhibition of human NCI-H1975 cells expressing EGFR L858R/T790M mutant incubated for 96 hrs by cell-titer Glo reagent based assay; assay type: functional; conditions: NCI-H1975, 96 h
[8] = system: A-431; experiment: Growth inhibition of human A431 cells incubated for 96 hrs by cell-titer Glo reagent based assay; assay type: functional; conditions: A-431, 96 h
[9] = target: Proto-oncogene tyrosine-protein kinase Src (Homo sapiens, UniProt P12931); experiment: Inhibition of wild type cSrc (251 to 533 residues) (unknown origin) pre-incubated for 30 mins before substrate and ATP addition by HTRF assay
[10] = Growth inhibition of human PC9 cells with del1 deletion incubated for 96 hrs by cell-titer Glo reagent based assay; assay type: functional; conditions: PC-9, 96 h
[11] = target: Proto-oncogene tyrosine-protein kinase Src (Homo sapiens, UniProt P12931, S348C/T341M); experiment: Inhibition of cSrc T338M/S345C mutant (unknown origin) pre-incubated for 30 mins before substrate and ATP addition by HTRF assay
[12] = target: Proto-oncogene tyrosine-protein kinase Src (Homo sapiens, UniProt P12931, T341M); experiment: Inhibition of cSrc T338M mutant (unknown origin) pre-incubated for 30 mins before substrate and ATP addition by HTRF assay
[13] = target: T2, Epidermal growth factor receptor; experiment: Inhibition of EGFR L858R/T790M mutant (unknown origin) expressed in Sf9 cells by enzyme kinetics assay
[14] = Permeability of the compound after 16 hrs assessed as compound flux by PAMPA method; assay type: physicochemical
[15] = Efflux ratio in human Caco2 cells incubated for 2 hrs; assay type: ADME, cell-based; conditions: Caco-2
[16] = system: Epidermal growth factor receptor (Homo sapiens), P00533 [L858R,T790M]; experiment: Inhibition of EGFR L858R/T790M mutant (unknown origin) expressed in Sf9 cells assessed as enzyme inactivation constant by enzyme kinetics assay
[17] = Kinetic solubility in 50 mM Hepes buffer at pH 7.4; assay type: physicochemical; conditions: read-out: Kinetic_solubility
[18] = system: Epidermal growth factor receptor (Homo sapiens), P00533 [T790M]; experiment: Binding affinity to EGFR T790M mutant (unknown origin) expressed in Sf9 cells by ESI-MS method
[19] = system: Epidermal growth factor receptor (Homo sapiens), P00533 [T790M]; experiment: Binding affinity to EGFR T790M mutant (unknown origin) expressed in Sf9 cells assessed as covalent modification at Cys797 residue nano-LC-MS/MS method
[20] = target: T1, Epidermal growth factor receptor; experiment: Inhibition of EGFR L858R mutant (unknown origin) expressed in Sf9 cells by enzyme kinetics assay
[21] = system: Epidermal growth factor receptor (Homo sapiens), P00533 [L858R]; experiment: Inhibition of EGFR L858R mutant (unknown origin) expressed in Sf9 cells assessed as enzyme inactivation constant by enzyme kinetics assay

| Compound | IC50 [2] [µM] | IC50 [3] [µM] | IC50 [4] [µM] | other results |
| --- | --- | --- | --- | --- |
| C=CC(=O)Nc1cccc(Oc2nc(Nc3n[nH]c4ccccc34)cc(N3CCN(C(C)=O)CC3)n2)c1 | 3.6 | 0.6 | 0.2 | GI50 [1]: 25 µM; growth inhibition (GI) [5]: inactive; GI50 [6]: > 30 µM |
| CCC(=O)Nc1cccc(Oc2nccc(Nc3cc(C)[nH]n3)n2)c1 | > 10 | > 10 | > 10 |  |
| C=CC(=O)Nc1cccc(-c2nccc(Nc3cc(C)[nH]n3)n2)c1 | > 10 | 2.8 | 2.5 |  |
| Cc1cc(Nc2cc(N3CCN(C)CC3)nc(Oc3ccc(N)cc3)n2)n[nH]1 | > 10 | 2.1 | 1.4 |  |
| Cc1cc(Nc2cc(N3CCN(C)CC3)nc(Oc3ccc(NC(=O)/C=C/C(F)(F)F)cc3)n2)n[nH]1 | 2 | 2.1 | 1.5 |  |
| CCC(=O)Nc1cccc(Oc2nc(Nc3cc[nH]n3)cc(N3CCN(C)CC3)n2)c1 | > 10 | > 10 | > 10 |  |
| C=CC(=O)Nc1ccccc1-c1nc(Nc2cc[nH]n2)c2ccccc2n1 | > 10 | 2.7 | 1.1 |  |
| C=CC(=O)Nc1ccc2c(Nc3cc[nH]n3)nc(-c3ccccc3)nc2c1 | > 10 | 1.9 | 2.2 | GI50 [7]: 1.6 µM; GI50 [8]: 0.7 µM; IC50 [9]: 0.211 µM; GI50 [10]: 1.9 µM; IC50 [11]: 0.043 µM; IC50 [12]: 0.065 µM |
| CCC(=O)Nc1ccccc1-c1nc(Nc2cc[nH]n2)c2ccccc2n1 | > 10 | > 10 | > 10 |  |
| C=CC(=O)Nc1ccc(-c2nc(Nc3cc[nH]n3)c3ccccc3n2)cc1 | > 10 | > 10 | > 10 |  |
| C=CC(=O)Nc1cccc(Oc2nccc(Nc3cc(C)[nH]n3)n2)c1 | > 10 | 1.8 | 0.9 |  |
| CCC(=O)Nc1ccc(-c2nc(Nc3cc[nH]n3)c3ccccc3n2)cc1 | > 10 | > 10 | > 10 |  |
| C=CC(=O)Nc1cccc(Oc2nc(Nc3cc[nH]n3)cc(N3CCN(C)CC3)n2)c1 | > 10 | 2 | 1.9 |  |
| C=CC(=O)Nc1cccc(Oc2nc(Nc3n[nH]c4ccc(Br)cc34)cc(N3CCN(C)CC3)n2)c1 | 2.9 | 0.4 | 0.3 | GI50 [7]: 18 µM; GI50 [1]: 8.6 µM; GI50 [6]: 11 µM |
| CCC(=O)Nc1cccc(-c2nc(Nc3cc[nH]n3)c3ccccc3n2)c1 | 3.7 | 1.9 | 0.4 |  |
| Cc1cc(Nc2cc(N3CCN(C)CC3)nc(Oc3cccc(N)c3)n2)n[nH]1 | > 10 | > 10 | 4.9 | GI50 [7]: > 30 µM; GI50 [1]: > 30 µM; GI50 [8]: 20 µM |
| C=CC(=O)Nc1cccc(Oc2nc(Nc3n[nH]c4ccccc34)cc(N3CCN(C)CC3)n2)c1 | 1.7 | 0.5 | 0.07 | GI50 [7]: 9.8 µM; Ki [13]: 0.00032 µM; permeability [14]: 47%; GI50 [1]: 2.5 µM; efflux ratio at 2 h [15]: 35; Kinact [16]: 0.137 min⁻¹; solubility kinetic [17]: 277 µM (≈ 130 µg/mL); Activity [18]: Active; Activity [19]: Active; Ki [20]: 0.833 µM; IC50 [11]: 0.017 µM; Kinact [21]: 0.055 min⁻¹; GI50 [6]: 8.6 µM |
